Data: patent US7807828B2, “Olanzapine analogs and methods of use thereof” (Hypnion, Inc., priority 2005, dated 2010)
Where two headings read alike, the source gives them in different places.

Key:
[1] = molecular target: T1, human recombinant M1 expressed in CHO cells (Homo sapiens, UniProt P11229); conditions: reference compounds; read-out: Ki of reference compounds in the M1 binding assay; cited from earlier work
T1 construct: purchased PerkinElmer, Inc., Wellesley, Mass; host or cells: CHO cells
T1 sequence (P11229 1-460): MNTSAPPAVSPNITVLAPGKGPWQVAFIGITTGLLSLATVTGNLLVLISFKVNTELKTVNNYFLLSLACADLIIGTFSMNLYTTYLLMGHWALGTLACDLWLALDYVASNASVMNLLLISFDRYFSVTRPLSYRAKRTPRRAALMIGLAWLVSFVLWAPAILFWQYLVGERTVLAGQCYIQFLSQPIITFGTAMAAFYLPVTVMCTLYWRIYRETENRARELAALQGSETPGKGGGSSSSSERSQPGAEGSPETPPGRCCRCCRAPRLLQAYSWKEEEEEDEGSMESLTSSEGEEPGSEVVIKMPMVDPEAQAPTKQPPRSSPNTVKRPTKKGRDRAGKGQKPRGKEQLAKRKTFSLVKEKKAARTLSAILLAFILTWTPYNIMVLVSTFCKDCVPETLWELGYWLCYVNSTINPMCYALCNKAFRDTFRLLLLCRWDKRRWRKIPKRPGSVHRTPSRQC

[2] = molecular target: T1, human recombinant M1 expressed in CHO cells; assay: M1 muscarinic receptor binding assay; conditions: Table 7A, first line of column M1 M2 M3
[3] = molecular target: T2, histamine H1 receptor (bovine) (Bos taurus, UniProt P30546); assay: Histamine H1 binding assay, bovine cerebellar membranes, [3H]pyrilamine; conditions: Table 7A; Ki in nM
T2 construct: the receptors were obtained from bovine cerebellar membrane tissue; from tissue; host or cells: bovine cerebellar membranes

[4] = tested on: adult, male Wistar rats; assay: Sleep-wakefulness monitoring (SCORE-2000, EEG/EMG) in rats; assay type: in vivo, rat; conditions: minutes; for LONGEST UNINTERRUPTED SLEEP BOUT 10 mg/kg / NREM CUMULATION 10 mg/kg: oral bolus at CT-18, 10 mg/kg; for LONGEST UNINTERRUPTED SLEEP BOUT 30 mg/kg / NREM CUMULATION 30 mg/kg: oral bolus at CT-18, 30 mg/kg
Description: Sleep-wakefulness, locomotor activity and body temperature are monitored in male Wistar rats treated with a test compound (i.e., olanzapine analog) initially at a concentration of 10 mg/kg. Higher and lower doses are assayed for select compounds (e.g., as high as 45 mg/kg, and as low as necessary to establish a no-effect dose). Treatments are administered at CT-18, the peak of the activity dominated period (6 hours after lights-off), and produced soporific (sleep-inducing) effects characterized by increased non-REM sleep time, increased sleep continuity, but without evidence of REM sleep inhibition or rebound insomnia.
Sleep-wakefulness, locomotor activity and body temperature were monitored in vivo with various compounds of the invention. Adult, male Wistar rats (250 g at time of surgery, Charles River Laboratories, Wilmington Mass.) were anesthetized (2% isoflourane in medical grade oxygen) and surgically prepared with a cranial implant to permit chronic electro-encephalogram (EEG) and electromyogram (EMG) recording. Body temperature and locomotor activity were monitored via a miniature transmitter (Mini-Mitter, Bend, Oreg.) surgically placed in the abdomen. The cranial implant consisted of stainless steel screws (two frontal (+3.2 AP from bregma, ±2.0 ML) and two occipital (−6.9 AP, ±5.5 ML)) for EEG recording. Two Teflon®-coated stainless steel wires were positioned under the nuchal trapezoid muscles for EMG recording. All leads were soldered to a miniature connector prior to surgery, and gas sterilized in ethylene oxide. The implant assembly was affixed to the skull with dental acrylic. A minimum of three weeks was allowed for surgical recovery.
Each rat was permanently housed in its own individual recording cage located within separate, ventilated compartments of custom-designed stainless steel cabinets. Each cage was enhanced with a filter-top riser and low-torque swivel-commutator. Food and water were available ad libitum. A 24-hr light-dark cycle (12 hours light, 12 hours dark) was maintained throughout the study. Animals were undisturbed for at least 48 hours before and after treatments.
Sleep and wakefulness were determined using “SCORE-2000™” (Hypnion, Worcester, Mass.)—an internet-based sleep-wake and physiological monitoring system. The system monitored amplified EEG (bandpass 1-30 Hz), integrated EMG (bandpass 10-100 Hz), body temperature and non-specific locomotor activity (LMA) via telemetry, and drinking activity, continuously and simultaneously. Arousal states were classified on-line as non-REM (NREM) sleep, REM sleep, wake, or theta-dominated wake every 10 seconds. Total drinking and locomotor activity counts, and body temperature were quantitiated and recorded each minute, using EEG feature extraction and pattern-matching algorithms. […] The classification algorithm used individually-taught EEG-arousal-state templates, plus EMG criteria to differentiate REM sleep from theta-dominated wakefulness, plus behavior-dependent contextual rules (e.g., if the animal was drinking, it is awake). Drinking and locomotor activity intensity (LMA) were recorded every 10 seconds, while body temperature was recorded each minute. Locomotor activity was detected by a telemetry receiver (Mini-Mitter) beneath the cage. Telemetry measures (LMA and body temperature) were not part of the scoring algorithm; thus, sleep-scoring and telemetry data were independent measures.
Compounds were administered at CT-18, the peak of the activity-dominated period, sufficient time was allowed to view the time course of the treatment effect before lights-on (6 hours post-treatment). Compounds were suspended in sterile 0.25% or 0.5% methylcellulose (1-2 ml/kg). Treatments were administered orally as a bolus.
A parallel group study design was employed. […]

[5] = molecular target: T3, human recombinant M2 expressed in CHO cells (Homo sapiens, UniProt P08172); assay: M2 muscarinic receptor binding assay; conditions: Table 7A, M1 M2 M3
T3 construct: purchased PerkinElmer, Inc., Wellesley, Mass; host or cells: CHO cells
T3 sequence (P08172 1-466): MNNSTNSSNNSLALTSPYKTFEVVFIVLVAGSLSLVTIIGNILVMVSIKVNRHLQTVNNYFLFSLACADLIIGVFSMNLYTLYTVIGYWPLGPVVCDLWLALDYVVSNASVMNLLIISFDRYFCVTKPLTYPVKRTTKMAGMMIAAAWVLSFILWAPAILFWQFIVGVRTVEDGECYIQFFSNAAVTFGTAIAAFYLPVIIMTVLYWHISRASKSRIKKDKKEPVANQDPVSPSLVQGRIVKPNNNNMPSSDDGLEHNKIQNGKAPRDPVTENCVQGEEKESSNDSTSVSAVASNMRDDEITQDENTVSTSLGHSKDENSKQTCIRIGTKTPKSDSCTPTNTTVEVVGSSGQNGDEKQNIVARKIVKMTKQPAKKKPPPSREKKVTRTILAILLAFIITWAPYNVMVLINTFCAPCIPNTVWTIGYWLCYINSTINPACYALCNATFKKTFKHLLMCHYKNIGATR

[6] = molecular target: T4, human recombinant M3 expressed in CHO cells (Homo sapiens, UniProt P20309); assay: M3 muscarinic receptor binding assay; conditions: Table 7A, third line of column M1 M2 M3
T4 construct: purchased PerkinElmer, Inc., Wellesley, Mass; host or cells: CHO cells

[7] = molecular target: T5, 5HT2a (hctx) (Homo sapiens, UniProt P28223); assay: 5HT2a (hctx) binding assay; conditions: Table 7B; unit inferred
T5 construct: (hctx); from tissue; host or cells: human cortex (my reading of 'hctx')

[8] = molecular target: 5HT2a (rat) (Rattus norvegicus, UniProt P14842); assay: 5HT2a (rat) binding assay; conditions: Table 7A; unit inferred
[9] = molecular target: D1 (h) (Homo sapiens, UniProt P21728); assay: Dopamine D1 (human recombinant) binding assay; conditions: Table 7A; unit inferred
Description: Dopamine, D1 (human recombinant) binding assay was performed according to published procedures. See, e.g., Jarvie, et al. J. Recept Res., 13(1-4): 573-90 (1993); and Billard, et al. Life Sciences, 35(18): 1885-93 (1984), with modifications

[10] = molecular target: D2 (h) (Homo sapiens, UniProt P14416); assay: Dopamine D2 binding assay; conditions: Table 7A; unit inferred
[11] = molecular target: 5HT2b (h) (Homo sapiens, UniProt P41595); assay: 5HT2b (h) binding assay; conditions: Table 7B; unit inferred
[12] = molecular target: T6, H1 (hr) (Homo sapiens, UniProt P35367); assay: H1 (hr) Novascreen binding assay; conditions: Table 7A; Ki in nM
T6 construct: Novascreen, MDS, Cerep (assay providers)
Description: Binding assays were performed using various sleep-inducing agents and derivatives selected from those listed in Table 1 in competitive binding assays with known standards for the H1 histamine receptor, and the M1, M2, and M3 muscarinic receptors, alpha 1 and alpha 2 receptors, D1 and D2 receptors, 5HT2a, 5HT2b, 5HT2c, 5HT2c, and 5HT7 receptors.
The histamine H1 assays are described in Chang, et al., Heterogeneity of Histamine H1-Receptors: Species Variation in [^3H]Mepyramine Binding of Brain Membranes. Journal of Neurochemistry. 32: 1653-1663 (1979); Martinez-Mir, M. I., Pollard, H., Moreau, J., et al. Three Histamine Receptors (H1, H2, and H3) Visualized in the Brain of Human and Non-Human Primates. Brain Res. 526: 322-327 (1990); Haaksma, E. E. J., Leurs, R. and Timmerman, H. Histamine Receptors: Subclasses and Specific Ligands. Pharmac. Ther. 47: 73-104 (1990). The muscarinic assays are described in Buckley, N. J., Bonner, T. I., Buckley, C. M., and Brann, M. R. Antagonist Binding Properties of Five Cloned Muscarinic Receptors Expressed in CHO-K1 Cells. Mol. Pharmacol. 35: 469-476 (1989). The assays were performed according to the preceding articles, with the following modifications. Chemical reagents in the following were obtained from Sigma, St. Louis, Mo.

Sequence of D2 (h) (P14416 whole entry): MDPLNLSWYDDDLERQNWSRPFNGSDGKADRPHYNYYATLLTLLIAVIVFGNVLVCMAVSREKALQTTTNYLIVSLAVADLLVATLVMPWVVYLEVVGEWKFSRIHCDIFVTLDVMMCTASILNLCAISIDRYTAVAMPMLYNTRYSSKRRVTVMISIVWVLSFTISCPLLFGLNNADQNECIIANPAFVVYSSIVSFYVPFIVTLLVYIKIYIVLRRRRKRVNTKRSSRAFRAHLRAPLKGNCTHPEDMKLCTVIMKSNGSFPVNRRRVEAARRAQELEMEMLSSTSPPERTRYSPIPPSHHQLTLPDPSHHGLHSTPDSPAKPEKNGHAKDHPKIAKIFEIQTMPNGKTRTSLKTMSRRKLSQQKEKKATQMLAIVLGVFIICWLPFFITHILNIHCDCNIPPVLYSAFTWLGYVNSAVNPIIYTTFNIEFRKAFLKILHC
T5 sequence (P28223 whole entry): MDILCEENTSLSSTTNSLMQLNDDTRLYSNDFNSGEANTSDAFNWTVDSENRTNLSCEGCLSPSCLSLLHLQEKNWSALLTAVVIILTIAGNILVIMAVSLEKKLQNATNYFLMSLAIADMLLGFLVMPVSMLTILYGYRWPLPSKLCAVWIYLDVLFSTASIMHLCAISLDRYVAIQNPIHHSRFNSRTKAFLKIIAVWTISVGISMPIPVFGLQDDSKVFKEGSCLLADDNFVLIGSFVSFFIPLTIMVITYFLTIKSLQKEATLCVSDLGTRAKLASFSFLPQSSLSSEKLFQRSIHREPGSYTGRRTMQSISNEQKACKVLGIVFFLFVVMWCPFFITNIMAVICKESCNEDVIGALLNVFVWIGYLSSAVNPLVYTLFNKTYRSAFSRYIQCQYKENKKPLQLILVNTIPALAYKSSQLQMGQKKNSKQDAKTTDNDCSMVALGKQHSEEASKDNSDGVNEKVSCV
T4 sequence (P20309 whole entry): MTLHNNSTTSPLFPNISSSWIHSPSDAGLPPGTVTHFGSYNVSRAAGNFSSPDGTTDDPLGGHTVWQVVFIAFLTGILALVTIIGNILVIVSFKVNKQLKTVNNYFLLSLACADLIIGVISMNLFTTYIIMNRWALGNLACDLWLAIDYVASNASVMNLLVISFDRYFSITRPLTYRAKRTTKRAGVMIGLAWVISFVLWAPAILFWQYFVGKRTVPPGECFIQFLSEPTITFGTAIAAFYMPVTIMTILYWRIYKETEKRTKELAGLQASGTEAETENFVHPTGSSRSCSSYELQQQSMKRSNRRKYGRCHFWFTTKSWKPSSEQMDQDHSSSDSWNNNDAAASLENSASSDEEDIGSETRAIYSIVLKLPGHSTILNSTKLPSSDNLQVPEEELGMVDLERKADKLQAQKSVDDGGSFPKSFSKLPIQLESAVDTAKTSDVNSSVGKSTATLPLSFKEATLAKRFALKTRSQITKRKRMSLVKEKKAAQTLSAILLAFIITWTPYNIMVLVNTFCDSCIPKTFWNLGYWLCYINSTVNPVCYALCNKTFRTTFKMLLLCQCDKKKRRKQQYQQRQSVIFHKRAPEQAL
T2 sequence (P30546 whole entry): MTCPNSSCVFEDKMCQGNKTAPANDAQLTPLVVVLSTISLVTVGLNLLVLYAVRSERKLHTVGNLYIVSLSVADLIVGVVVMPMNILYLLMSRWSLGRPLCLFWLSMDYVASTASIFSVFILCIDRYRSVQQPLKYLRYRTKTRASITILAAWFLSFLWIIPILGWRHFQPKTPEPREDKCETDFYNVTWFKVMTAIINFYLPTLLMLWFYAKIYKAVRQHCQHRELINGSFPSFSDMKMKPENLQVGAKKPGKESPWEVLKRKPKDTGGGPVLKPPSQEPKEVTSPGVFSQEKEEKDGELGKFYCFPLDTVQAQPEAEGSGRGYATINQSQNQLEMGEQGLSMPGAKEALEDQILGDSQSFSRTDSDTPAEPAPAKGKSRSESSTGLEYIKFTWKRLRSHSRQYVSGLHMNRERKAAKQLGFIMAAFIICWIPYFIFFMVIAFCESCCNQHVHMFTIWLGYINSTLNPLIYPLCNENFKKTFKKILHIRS
Sequence of D1 (h) (P21728 whole entry): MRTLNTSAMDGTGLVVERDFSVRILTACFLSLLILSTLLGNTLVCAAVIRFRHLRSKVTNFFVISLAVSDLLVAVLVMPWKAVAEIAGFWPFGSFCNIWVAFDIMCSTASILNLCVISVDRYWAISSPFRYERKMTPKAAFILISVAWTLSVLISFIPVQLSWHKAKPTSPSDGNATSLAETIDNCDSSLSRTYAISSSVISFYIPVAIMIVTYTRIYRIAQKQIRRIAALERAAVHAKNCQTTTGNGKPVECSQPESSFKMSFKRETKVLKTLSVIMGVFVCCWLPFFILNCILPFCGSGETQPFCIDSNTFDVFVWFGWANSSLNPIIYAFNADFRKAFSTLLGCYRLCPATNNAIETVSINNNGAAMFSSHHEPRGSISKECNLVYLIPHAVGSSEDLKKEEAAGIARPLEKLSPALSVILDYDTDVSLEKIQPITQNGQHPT
Sequence of 5HT2a (rat) (P14842 whole entry): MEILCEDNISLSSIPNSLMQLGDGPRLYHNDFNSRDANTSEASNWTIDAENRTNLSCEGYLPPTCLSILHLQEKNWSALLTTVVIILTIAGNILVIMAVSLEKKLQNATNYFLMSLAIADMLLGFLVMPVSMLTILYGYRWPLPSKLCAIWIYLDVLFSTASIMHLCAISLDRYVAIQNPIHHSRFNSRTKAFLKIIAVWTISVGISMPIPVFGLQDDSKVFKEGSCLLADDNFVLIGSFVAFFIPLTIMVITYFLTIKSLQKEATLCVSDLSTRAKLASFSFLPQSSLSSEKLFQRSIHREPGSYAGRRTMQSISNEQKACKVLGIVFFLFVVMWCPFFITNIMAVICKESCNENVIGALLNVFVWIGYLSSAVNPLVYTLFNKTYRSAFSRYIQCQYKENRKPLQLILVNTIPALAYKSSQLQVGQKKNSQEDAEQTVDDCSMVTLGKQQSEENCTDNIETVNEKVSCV
T6 sequence (P35367 whole entry): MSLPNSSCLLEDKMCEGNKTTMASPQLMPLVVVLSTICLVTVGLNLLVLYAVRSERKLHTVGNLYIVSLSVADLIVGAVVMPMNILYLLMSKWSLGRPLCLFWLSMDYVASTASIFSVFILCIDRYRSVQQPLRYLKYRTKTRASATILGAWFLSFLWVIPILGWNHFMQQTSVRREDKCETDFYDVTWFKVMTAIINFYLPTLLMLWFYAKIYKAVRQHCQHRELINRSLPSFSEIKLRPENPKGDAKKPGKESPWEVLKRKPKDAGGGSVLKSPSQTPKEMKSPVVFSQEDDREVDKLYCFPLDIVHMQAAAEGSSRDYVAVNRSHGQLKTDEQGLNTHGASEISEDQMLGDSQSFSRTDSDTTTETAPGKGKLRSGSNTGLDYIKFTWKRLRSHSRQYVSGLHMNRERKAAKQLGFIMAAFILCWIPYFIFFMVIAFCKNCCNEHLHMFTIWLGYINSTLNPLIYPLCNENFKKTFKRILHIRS
Sequence of 5HT2b (h) (P41595 whole entry): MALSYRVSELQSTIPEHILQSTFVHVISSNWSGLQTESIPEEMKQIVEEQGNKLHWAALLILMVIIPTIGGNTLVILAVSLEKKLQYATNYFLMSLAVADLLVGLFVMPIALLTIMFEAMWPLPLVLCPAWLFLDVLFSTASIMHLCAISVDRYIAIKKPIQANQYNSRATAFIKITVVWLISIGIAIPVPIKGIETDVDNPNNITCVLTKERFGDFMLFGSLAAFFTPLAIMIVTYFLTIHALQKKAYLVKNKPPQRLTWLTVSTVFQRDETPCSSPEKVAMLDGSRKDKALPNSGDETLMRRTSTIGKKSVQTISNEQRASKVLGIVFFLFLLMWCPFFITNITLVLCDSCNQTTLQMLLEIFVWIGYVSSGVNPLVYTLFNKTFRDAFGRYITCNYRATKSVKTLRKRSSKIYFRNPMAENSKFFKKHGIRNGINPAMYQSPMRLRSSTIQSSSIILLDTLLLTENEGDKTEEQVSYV

Row | Compound | LONGEST UNINTERRUPTED SLEEP BOUT 10 mg/kg [4] | NREM CUMULATION 10 mg/kg [4] | LONGEST UNINTERRUPTED SLEEP BOUT 30 mg/kg [4] | NREM CUMULATION 30 mg/kg [4] | further results
1 | C[N+]1(C)CCC(OC(=O)C(c2ccccc2)c2ccccc2)CC1 [4-DAMP methiodide] | – | – | – | – | Ki [1]: 0.27 nM
2 | CC(C)(CN1CCN(C2=Nc3ccccc3Nc3sccc32)CC1)C(=O)O [Compound 1] | -7.0 ± 2.4 min | 6 ± 6 min | 4.1 ± 2.1 min | 12 ± 5 min | Ki [2]: > 10000 nM; Ki [3]: 2310 nM; Ki [5]: > 10000 nM; Ki [6]: > 10000 nM
3 | Cc1ccc2c(c1)N=C(N1CCN(CC(C)(C)C(=O)O)CC1)c1cc(C)sc1N2 [Compound 52] | 5.9 ± 2.3 min | 25 ± 5 min | – | – | –
4 | Cc1cc2c(s1)Nc1ccccc1N=C2N1CCN(CC(C)(C)C(=O)NS(C)(=O)=O)CC1 [Compound 89] | 5.7 ± 1.8 min | 14 ± 7 min | 13.6 ± 2.7 min | 37 ± 6 min | Ki [7]: 1000 nM; Ki [2]: > 10000 nM; Ki [3]: 139 nM; Ki [8]: 29.5 nM; Ki [9]: 6500 nM; Ki [5]: > 10000 nM; Ki [10]: 927 nM; Ki [6]: > 10000 nM
5 | Cc1cc2c(s1)Nc1ccccc1N=C2N1CCN(CCCC(=O)O)CC1 [Compound 93] | -3.0 ± 2.8 min | 16 ± 6 min | 2.0 ± 1.5 min | 10 ± 5 min | –
6 | Cc1ccc2c(c1)Nc1sc(C)cc1C(N1CCN(CC(C)(C)C(=O)O)CC1)=N2 [Compound 95] | 15.8 ± 5.2 min | 43 ± 5 min | – | – | Ki [7]: 28 nM; Ki [11]: 240 nM; Ki [10]: 970 nM; Ki [12]: 200 nM
7 | Cc1ccc2c(c1)Nc1sc(C)cc1C(N1CCN(CCC(=O)O)CC1)=N2 [Compound 97] | -3.6 ± 2.6 min | 7 ± 3 min | – | – | –
8 | COc1ccc2c(c1)Nc1sc(C)cc1C(N1CCN(CC(C)(C)C(=O)O)CC1)=N2 [Compound 98] | -6.2 ± 2.7 min | 12 ± 7 min | – | – | –
9 | Cc1cc2c(s1)Nc1cc(F)ccc1N=C2N1CCN(CC(C)(C)C(=O)O)CC1 [Compound 101] | 5.9 ± 2.4 min | 51 ± 8 min | – | – | –
